Laboratory results from patent publication US10251892B2, “Bicyclic heterocycles as FGFR4 inhibitors” (Incyte Corporation, priority 2015, dated 2019).

What was measured:
FGFR4 = FGFR4 (Homo sapiens (Human), UniProt P22455); experiment: FGFR Enzymatic Assay (peptide phosphorylation, FRET), FGFR4; assay type: biochemical
Experimental: (§1) The inhibitor potency of the exemplified compounds was measured in an enzyme assay that measures peptide phosphorylation using FRET measurements to detect product formation. Inhibitors were serially diluted in DMSO and a volume of 0.5 μL was transferred to the wells of a 384-well plate.
The enzymes were purchased from Millipore or Invitrogen.
(§2) GraphPad prism3 was used to analyze the data.

FGFR3 enzyme = FGFR3 enzyme (Homo sapiens (Human), UniProt P22607); experiment: FGFR Enzymatic Assay (peptide phosphorylation, FRET), FGFR3; assay type: biochemical; conditions: IC50 ratio showing FGFR3 selectivity; pre-incubated for 4 hours
Chain of FGFR3 enzyme (P22607 23-806): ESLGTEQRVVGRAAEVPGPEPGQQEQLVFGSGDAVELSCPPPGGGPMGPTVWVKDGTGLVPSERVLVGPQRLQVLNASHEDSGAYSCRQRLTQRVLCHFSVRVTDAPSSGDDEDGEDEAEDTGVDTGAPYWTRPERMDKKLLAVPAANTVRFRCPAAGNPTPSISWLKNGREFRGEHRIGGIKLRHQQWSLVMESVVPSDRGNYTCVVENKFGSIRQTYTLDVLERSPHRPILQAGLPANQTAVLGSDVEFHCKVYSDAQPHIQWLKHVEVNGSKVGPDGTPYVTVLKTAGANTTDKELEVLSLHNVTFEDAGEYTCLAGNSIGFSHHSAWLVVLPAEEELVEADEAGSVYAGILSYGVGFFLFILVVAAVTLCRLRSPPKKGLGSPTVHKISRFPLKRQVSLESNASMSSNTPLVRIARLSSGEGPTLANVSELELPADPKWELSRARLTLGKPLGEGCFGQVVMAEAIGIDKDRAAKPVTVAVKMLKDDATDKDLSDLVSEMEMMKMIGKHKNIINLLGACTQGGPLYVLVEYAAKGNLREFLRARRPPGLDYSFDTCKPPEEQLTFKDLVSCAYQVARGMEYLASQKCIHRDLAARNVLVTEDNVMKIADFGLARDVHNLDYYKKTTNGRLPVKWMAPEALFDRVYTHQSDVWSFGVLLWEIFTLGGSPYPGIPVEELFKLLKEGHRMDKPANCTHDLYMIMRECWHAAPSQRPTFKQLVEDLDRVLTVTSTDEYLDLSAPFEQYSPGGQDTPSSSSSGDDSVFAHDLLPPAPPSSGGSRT
Experimental: as §1, §2

[1] = IC50 ratio showing FGFR4 selectivity, pre-incubated for 4 hours
[2] = ratio of IC50 data showing FGFR4 selectivity, pre-incubated for 5 to 10 minutes

Chain of FGFR4 (P22455 22-802): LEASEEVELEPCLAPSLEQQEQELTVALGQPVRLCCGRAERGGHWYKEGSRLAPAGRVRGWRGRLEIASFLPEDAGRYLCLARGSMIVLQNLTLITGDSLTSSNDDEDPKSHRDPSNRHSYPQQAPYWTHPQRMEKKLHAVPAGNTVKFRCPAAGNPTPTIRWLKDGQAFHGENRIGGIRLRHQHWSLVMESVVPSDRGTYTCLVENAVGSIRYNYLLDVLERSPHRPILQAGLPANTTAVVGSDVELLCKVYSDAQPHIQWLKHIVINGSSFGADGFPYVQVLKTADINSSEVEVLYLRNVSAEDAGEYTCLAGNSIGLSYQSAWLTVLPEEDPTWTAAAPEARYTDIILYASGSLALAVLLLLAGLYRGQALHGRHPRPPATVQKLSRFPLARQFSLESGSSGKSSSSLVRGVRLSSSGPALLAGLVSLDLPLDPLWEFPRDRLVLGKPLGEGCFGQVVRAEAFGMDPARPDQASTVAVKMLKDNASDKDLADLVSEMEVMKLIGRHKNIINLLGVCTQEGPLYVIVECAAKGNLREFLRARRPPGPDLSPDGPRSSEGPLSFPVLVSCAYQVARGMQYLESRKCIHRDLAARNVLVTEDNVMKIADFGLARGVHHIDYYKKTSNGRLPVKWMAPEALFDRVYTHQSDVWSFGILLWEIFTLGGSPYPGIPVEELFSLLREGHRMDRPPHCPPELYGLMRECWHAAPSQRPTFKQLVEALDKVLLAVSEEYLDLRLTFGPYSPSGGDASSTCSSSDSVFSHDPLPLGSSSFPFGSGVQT

Row | SMILES | FGFR1/FGFR4 (FGFR4; [1]) | FGFR2/FGFR4 (FGFR4; [1]) | FGFR3/FGFR4 (FGFR4; [1]) | FGFR1/FGFR4 (FGFR4; [2]) | FGFR2/FGFR4 (FGFR4; [2]) | FGFR3/FGFR4 (FGFR4; [2]) | FGFR1/FGFR3 (FGFR3 enzyme)
1 | COc1cc(OC)c(F)c(N2Cc3cnc(-c4cc(N)ccc4C)cc3C3(CC3)C2=O)c1F [Example 1, 6′-(5-amino-2-methylphenyl)-2′-(2,6-difluoro-3,5-dimethoxyphenyl)-1′H-spiro[cyclopropane-1,4′-[2,7]naphthyridin]-3′(2′H)-one] | >25 | >25 | >25 | >25 | >25 | >50 | –
2 | COc1cc(OC)c(F)c(N2Cc3cnc(-c4cc(N)c(F)cc4C)cc3C3(CC3)C2=O)c1F [Example 2, 6′-(5-amino-4-fluoro-2-methylphenyl)-2′-(2,6-difluoro-3,5-dimethoxyphenyl)-1′H-spiro[cyclopropane-1,4′-[2,7]naphthyridin]-3′(2′H)-one] | >10 | >10 | >10 | >10 | >10 | >10 | –
3 | COc1cc(OC)c(F)c(N2Cc3cnc(-c4cc(N)ccc4C#N)cc3C3(CC3)C2=O)c1F [Example 3, 4-amino-2-(2′-(2,6-difluoro-3,5-dimethoxyphenyl)-3′-oxo-2′,3′-dihydro-1′H-spiro[cyclopropane-1,4′-[2,7]naphthyridine]-6′-yl)benzonitrile] | >25 | >25 | >10 | >25 | >25 | >25 | –
4 | COc1cc(OC)c(F)c(N2Cc3cnc(-c4cncc(N)c4)cc3C3(CC3)C2=O)c1F [Example 4, 6′-(5-aminopyridin-3-yl)-2′-(2,6-difluoro-3,5-dimethoxyphenyl)-1′H-spiro[cyclopropane-1,4′-[2,7]naphthyridin]-3′(2′H)-one] | >25 | >10 | >10 | >10 | >10 | >5 | >1
5 | COc1cc(OC)c(F)c(N2Cc3cnc(-c4cncc(F)c4)cc3C3(CC3)C2=O)c1F [Example 5, 2′-(2,6-difluoro-3,5-dimethoxyphenyl)-6′-(5-fluoropyridin-3-yl)-1′H-spiro[cyclopropane-1,4′-[2,7]naphthyridin]-3′(2′H)-one] | >10 | >5 | >1 | >10 | >5 | >4 | >3
6 | COc1cc(OC)c(F)c(N2Cc3cnc(-c4cncc(N5CCOCC5)c4)cc3C3(CC3)C2=O)c1F [Example 6, 2′-(2,6-difluoro-3,5-dimethoxyphenyl)-6′-(5-morpholinopyridin-3-yl)-1′H-spiro[cyclopropane-1,4′-[2,7]naphthyridin]-3′(2′H)-one] | >100 | >100 | >25 | >100 | >100 | >50 | >3
7 | COc1cc(OC)c(F)c(N2Cc3cnc(-c4cc(N)cnc4C)cc3C3(CC3)C2=O)c1F [Example 7, 6′-(5-amino-2-methylpyridin-3-yl)-2′-(2,6-difluoro-3,5-dimethoxyphenyl)-1′H-spiro[cyclopropane-1,4′-[2,7]naphthyridin]-3′(2′H)-one] | >50 | >25 | >25 | >25 | >10 | >10 | >1
8 | COc1cc(OC)c(F)c(N2Cc3cnc(-c4cncc(C#N)c4)cc3C3(CC3)C2=O)c1F [Example 8, 5-(2′-(2,6-difluoro-3,5-dimethoxyphenyl)-3′-oxo-2′,3′-dihydro-1′H-spiro[cyclopropane-1,4′-[2,7]naphthyridine]-6′-yl)nicotinonitrile] | >50 | >10 | >10 | >50 | >10 | >10 | >5
9 | COc1cc(OC)c(F)c(N2Cc3cnc(-c4cccnc4)cc3C3(CC3)C2=O)c1F [Example 9, 2′-(2,6-difluoro-3,5-dimethoxyphenyl)-6′-(pyridin-3-yl)-1′H-spiro[cyclopropane-1,4′-[2,7]naphthyridin]-3′(2′H)-one] | >10 | >1 | >1 | >5 | >1 | >1 | >3
10 | COc1cncc(-c2cc3c(cn2)CN(c2c(F)c(OC)cc(OC)c2F)C(=O)C32CC2)c1 [Example 10, 2′-(2,6-difluoro-3,5-dimethoxyphenyl)-6′-(5-methoxypyridin-3-yl)-1′H-spiro[cyclopropane-1,4′-[2,7]naphthyridin]-3′(2′H)-one] | >25 | >25 | >10 | >25 | >10 | >10 | >1
11 | COc1cc(OC)c(F)c(N2Cc3cnc(-c4cncc(Cl)c4)cc3C3(CC3)C2=O)c1F [Example 11, 6′-(5-chloropyridin-3-yl)-2′-(2,6-difluoro-3,5-dimethoxyphenyl)-1′H-spiro[cyclopropane-1,4′-[2,7]naphthyridin]-3′(2′H)-one] | >25 | >25 | >10 | >50 | >20 | >25 | >1
12 | COc1cc(OC)c(F)c(N2Cc3cnc(-c4cncc(-n5ccnc5)c4)cc3C3(CC3)C2=O)c1F [Example 12, 6′-(5-(1H-imidazol-1-yl)pyridin-3-yl)-2′-(2,6-difluoro-3,5-dimethoxyphenyl)-1′H-spiro[cyclopropane-1,4′-[2,7]naphthyridin]-3′(2′H)-one] | >50 | >25 | >10 | >50 | >25 | >20 | >3
13 | COc1cc(OC)c(F)c(N2Cc3cnc(-c4cncc(C(=O)N5CCOCC5)c4)cc3C3(CC3)C2=O)c1F [Example 13, 2′-(2,6-difluoro-3,5-dimethoxyphenyl)-6′-(5-(morpholine-4-carbonyl)pyridin-3-yl)-1′H-spiro[cyclopropane-1,4′-[2,7]naphthyridin]-3′(2′H)-one] | >50 | >25 | >10 | >50 | >20 | >10 | >3
14 | COc1cc(OC)c(F)c(N2Cc3cnc(-c4cncc(S(=O)(=O)N5CCOCC5)c4)cc3C3(CC3)C2=O)c1F [Example 14, 2′-(2,6-difluoro-3,5-dimethoxyphenyl)-6′-(5-(morpholinosulfonyl)pyridin-3-yl)-1′H-spiro[cyclopropane-1,4′-[2,7]naphthyridin]-3′(2′H)-one] | >50 | >10 | >1 | >25 | >5 | >5 | >5
15 | COc1cc(OC)c(F)c(N2Cc3cnc(-c4cncc(NS(C)(=O)=O)c4)cc3C3(CC3)C2=O)c1F [Example 15, N-(5-(2′-(2,6-difluoro-3,5-dimethoxyphenyl)-3′-oxo-2′,3′-dihydro-1′H-spiro[cyclopropane-1,4′-[2,7]naphthyridine]-6′-yl)pyridin-3-yl)methanesulfonamide] | >50 | >25 | >10 | >50 | >25 | >10 | >3
16 | COc1cc(OC)c(F)c(N2Cc3cnc(-c4[nH]ncc4C#N)cc3C3(CC3)C2=O)c1F [Example 171, 5-(2′-(2,6-difluoro-3,5-dimethoxyphenyl)-3′-oxo-2′,3′-dihydro-1′H-spiro[cyclopropane-1,4′-[2,7]naphthyridine]-6′-yl)-1H-pyrazole-4-carbonitrile] | >10 | >10 | >10 | – | – | – | –
17 | COc1cc(OC)c(F)c(N2Cc3cnc(-c4nn(C)cc4C#N)cc3C3(CC3)C2=O)c1F [Example 172, 3-(2′-(2,6-difluoro-3,5-dimethoxyphenyl)-3′-oxo-2′,3′-dihydro-1′H-spiro[cyclopropane-1,4′-[2,7]naphthyridine]-6′-yl)-1-methyl-1H-pyrazole-4-carbonitrile] | >50 | >25 | >10 | – | – | – | –
18 | COc1cc(OC)c(F)c(N2Cc3cnc(-c4nn(CC5CCOCC5)cc4C#N)cc3C3(CC3)C2=O)c1F [Example 173, 3-(2′-(2,6-difluoro-3,5-dimethoxyphenyl)-3′-oxo-2′,3′-dihydro-1′H-spiro[cyclopropane-1,4′-[2,7]naphthyridine]-6′-yl)-1-((tetrahydro-2H-pyran-4-yl)methyl)-1H-pyrazole-4-carbonitrile] | >100 | >100 | >50 | – | – | – | –
19 | COc1cc(OC)c(F)c(N2Cc3cnc(-c4nn(CC#N)cc4C#N)cc3C3(CC3)C2=O)c1F [Example 174, 1-(cyanomethyl)-3-(2′-(2,6-difluoro-3,5-dimethoxyphenyl)-3′-oxo-2′,3′-dihydro-1′H-spiro[cyclopropane-1,4′-[2,7]naphthyridine]-6′-yl)-1H-pyrazole-4-carbonitrile] | >100 | >10 | >25 | – | – | – | –
